Measurements taken from patent publication US8709392B2, “Cosmetic/dermatological compositions comprising naphthoic acid compounds and polyurethane polymers” (Galderma Research & Development, priority 2005, dated 2014).

What was measured:
[1] = test system: skin of the back of RHINO FVB/N RJ-hr^rh mice (Rhino); assay: Study of the comedolytic activity on Rhino mice; type: in vivo, mouse; settings: for Change in weight of the Rhino mice (%) D19-D1, Mean: 50 μl topical daily for 18 days; for increase in transepidermal water loss (TWL), AUC: Rhino mice, after 18 days of topical treatment
Experimental: The present study is aimed at evaluating the comedolytic activity of the reference gel containing 0.1% adapalene and of two 0.1% adapalene formulations in gel form with a polyurethane polymer at different concentrations, and also their placebos, on the skin of the back of RHINO FVB/N RJ-hr^rh mice (Rhino) after repeated topical applications for 18 days.
The daily topical application (50 μl) of the test products is performed on the skin of the back of Rhino mice divided into seven groups (approximately 7-week-old mice) at a rate of one application per day for 18 days. The test products are:
The tolerance evaluation is made by clinical observation of the dorsal epidermis with the following observation parameters: oedema, erythema and squamae 3 times a week for 19 days.
The comedolytic activity is evaluated by measuring the transepidermal water loss (TWL) on days D4, D11 and D19, by measuring the thickness of the epidermis, by counting the number of comedones/cm and by weighing the animals on days D1, D4, D11 and D19.
The TWL quantifies the impairment in the skin barrier by measuring the gradient of water vapor that is established in a layer 10 mm thick above the surface of the skin.

[2] = test system: skin of the ear of the BALB/c mouse; assay: Tolerance study in BALB/c mice (ear thickness after repeated topical applications); type: in vivo
Experimental: The present study is for comparing the irritant power of a reference gel containing 0.1% adapalene with that of three 0.1% adapalene formulations in gel form containing a polyurethane polymer at various concentrations, and also placebos thereof, on the skin of the ear of the BALB/c mouse after repeated topical applications for 6 days.
The daily topical application (20 μl) of the test products is performed on the inner face of the ear of BALB/c mice divided into ten groups (female mice about 8 weeks old) at a rate of one application per day for 6 days. The test products are:
The evaluation is performed by measuring the thickness of the ear by means of the Oditest and by clinical observation of the animals from the 2nd to the 19th day.

| Compound | Change in weight of the Rhino mice (%) D19-D1, Mean [1] [%] | increase in transepidermal water loss (TWL), AUC [1] [%] | irritant power ([2]; BALB/c mouse ear thickness kinetics D2-D19) | Increase in AUC versus placebo (%) ([2]; ear thickness AUC D2-D19, BALB/c mouse, relative to own placebo) |
| --- | --- | --- | --- | --- |
| CC1(C)CCC(C)(C)c2cc(-c3cc4ccc(C(=O)O)cc4s3)ccc21 [2-(5,5,8,8-tetramethyl-5,6,7,8-tetrahydronaphthalen-2-yl)benzo[b]thiophene-6-carboxylic acid] | 10.4 | 332 | – | – |
| COc1ccc(-c2ccc3cc(C(=O)O)ccc3c2)cc1C12CC3CC(CC(C3)C1)C2 [acetone+0.1% (m/m) adapalene, 6-[3-(1-adamantyl)-4-methoxyphenyl]-2-naphthoic acid] | 9.2 | 299 | also irritant | 30 |
